Values of other authors, collected in the CATMoS acute toxicity set (Mansouri et al. 2021).
Where “and” joins values, the source holds several entries; their conditions need not be identical. Equal values may be shown once.

Experiment: rat acute oral toxicity
Details: in vivo
In the case of `CN1CCN(C(=O)OC2c3nccnc3C(=O)N2c2ccc(Cl)cn2)CC1` (stereo not drawn), the LD50 is listed as 827 mg/kg.
In the case of `CN1CCN(c2c(F)cc3c(=O)c(C(=O)O)cn4c3c2SCC4)CC1`, the LD50 is listed as 501 mg/kg.
In the case of `CC(C)C(Br)C(=O)O` (stereo not drawn), the LD50 is given as 769 mg/kg.
In the case of `CCOC(C1=NCC(CC)(CC)CN1)c1ccc(Cl)cc1` (stereo not drawn), the LD50 is listed as 375 mg/kg.
In the case of `CC(=O)Nc1ccc(CC(=O)O)cc1`, the LD50 is given as 14800 mg/kg.
For `CCOC(=O)N(C)N=O`, the LD50 is listed as 180 mg/kg.
In the case of `CC(C)=CCN(CC=C(C)C)CCC(C)(C(N)=O)c1cccc2ccccc12` (stereo not drawn), the LD50 is listed as 353 mg/kg.
In the case of `CCN(C(C)C)C(C)C`, the LD50 is given as 317 mg/kg.
For `CCC=C(C)C=O`, the LD50 is listed as 4290 mg/kg.
For `O=[N+]([O-])c1c(Cl)cc(Cl)c([N+](=O)[O-])c1Cl`, the LD50 is listed as 500 mg/kg.
For `CNC(=O)ON=C1CSCS1`, the LD50 is listed as 13 mg/kg.
In the case of `CC(C(=O)O)c1ccc2oc(-c3ccc(Cl)cc3)nc2c1` (stereo not drawn), the LD50 is listed as 118 mg/kg.
For `C=CCSC1=NCCS1`, the LD50 is listed as 110 mg/kg.
In the case of `Cc1ccccc1Oc1cccnn1`, the LD50 is given as 3090 mg/kg.
For `C=CCN1CC[C@]23CCCC[C@H]2[C@H]1Cc1ccc(O)cc13`, the LD50 is listed as 949 mg/kg.
In the case of `Cc1nc2ccccc2n1Cc1ccc(Cl)cc1`, the LD50 is listed as 2200 mg/kg.
For `NCC1CCC(CN)CC1` (stereo not drawn), the LD50 is listed as 530 mg/kg.
In the case of `N[C@@H](Cc1ccc(O)c(O)c1)C(=O)O`, the LD50 is listed as 1780 mg/kg.
For `CC(Cl)C(Cl)Cl` (stereo not drawn), the LD50 is given as 1230 mg/kg.
In the case of `CC=CC#N`, the LD50 is given as 167 mg/kg and 501 mg/kg.
For `O=C1CCc2cc(C(=O)CCN3CCN(c4cccc(Cl)c4)CC3)ccc2N1`, the LD50 is listed as 500 mg/kg.
For `Cc1ccc(O)c(C2CCCCC2)c1`, the LD50 is given as 1870 mg/kg.
In the case of `Nc1cccc2cc(S(=O)(=O)O)ccc12`, the LD50 is listed as 14200 mg/kg.
In the case of `CCOP(=O)(OCC)Sc1ccc([N+](=O)[O-])cc1`, the LD50 is listed as 4.41 mg/kg.
In the case of `CC[C@H]1OC(=O)[C@H](C)[C@@H](O[C@H]2C[C@@](C)(OC)[C@@H](O)[C@H](C)O2)[C@H](C)[C@@H](O[C@@H]2O[C@H](C)C[C@H](N(C)C)[C@H]2O)[C@](C)(OC)C[C@@H](C)C(=O)[C@H](C)[C@@H](O)[C@]1(C)O`, the LD50 is given as 1270 mg/kg.
In the case of `Nc1ccncc1`, the LD50 is given as 32 mg/kg.
For `O=C(O)C(F)(F)C(F)(F)C(F)(F)C(F)(F)C(F)(F)C(F)(F)C(F)(F)C(F)(F)C(F)(F)F`, the LD50 is listed as 57 mg/kg.
In the case of `CCN(CC)c1nc(N(C=NC2CC(C)(C)NC(C)(C)C2)C2CC(C)(C)NC(C)(C)C2)nc(N(C=NC2CC(C)(C)NC(C)(C)C2)C2CC(C)(C)NC(C)(C)C2)n1`, the LD50 is given as 826 mg/kg.
For `CCCCCCCC/C=C\CCCCCCCC(=O)N(C)CCS(=O)(=O)O`, the LD50 is given as 1700 mg/kg.
For `CCOC(=O)C(Cl)=NNc1ccccc1`, the LD50 is listed as 13000 mg/kg.
For `OCc1c(F)c(F)c(F)c(F)c1F`, the LD50 is given as 900 mg/kg.
In the case of `COCCc1ccccc1`, the LD50 is listed as 4100 mg/kg.
For `CCC(=O)C1(N2CCCCC2)CCN(CCCC(=O)c2ccc(F)cc2)CC1`, the LD50 is given as 780 mg/kg.
In the case of `CCCN(CCC)C(=O)CN(CC)P(=S)(OCC)OCC`, the LD50 is given as 2080 mg/kg.
For `OC1(c2ccc(Cl)cc2)c2ccccc2C2=NCCN21` (stereo not drawn), the LD50 is given as 36.3 mg/kg.
For `Cc1c(-c2ccccc2)oc2c(C(=O)OCCN3CCCCC3)cccc2c1=O`, the LD50 is listed as 1440 mg/kg and 1040 mg/kg.
For `CC=Cc1ccc(O)c(OC)c1`, the LD50 is listed as 1560 mg/kg.
For `ClC1=C(Cl)C2(Cl)C3CC(Cl)(Cl)CC3C1(Cl)C2(Cl)Cl` (stereo not drawn), the LD50 is listed as 500 mg/kg.
For `O=[N+]([O-])C(Br)Br`, the LD50 is listed as 86 mg/kg.
In the case of `C=C(Nc1ccc(NC(=O)COC)cc1)N(C)C`, the LD50 is listed as 4690 mg/kg.
For `Cc1cncc(C)n1`, the LD50 is given as 880 mg/kg.
In the case of `C1CCCNCC1`, the LD50 is given as 20.7 mg/kg.
In the case of `CCCCOC(=O)COC(=O)c1ccccc1C(=O)OCCCC`, the LD50 is given as 7000 mg/kg.
In the case of `CC(O)(c1ccc(Cl)cc1)c1ccc(Cl)cc1`, the LD50 is given as 500 mg/kg.
For `CC1=C(CC(=O)O)c2cc(F)ccc2/C1=C\c1ccc(S(C)=O)cc1` (stereo not drawn), the LD50 is listed as 264 mg/kg.
For `CCOP(=S)(OCC)SCC`, the LD50 is listed as 80 mg/kg.
In the case of `C1CCC2OCCOCCOCCOC3CCCCC3OCCOCCOCCOC2C1` (stereo not drawn), the LD50 is listed as 75 mg/kg.
In the case of `CCOC(=O)CCC1(CCC(=O)OCC)c2ccccc2-c2ccccc21`, the LD50 is given as 6170 mg/kg.
For `CC(=O)N1CCOCC1`, the LD50 is listed as 6130 mg/kg.
For `COc1ccc2c(c1)CCC(c1ccccc1)=C2c1ccc(OCCN2CCCC2)cc1`, the LD50 is given as 302 mg/kg.
In the case of `COc1cc2nc(N3CCN(C(=O)c4ccco4)CC3)nc(N)c2cc1OC`, the LD50 is given as 1950 mg/kg.
In the case of `CN1C(=O)CC(=O)N(c2ccccc2)c2cc(Cl)ccc21`, the LD50 is listed as 6000 mg/kg.
In the case of `O=c1[nH]c2c(Cl)c(Cl)cc(Cl)c2o1`, the LD50 is given as 500 mg/kg.
For `CC(C)(C)C(=O)C(Cl)Cl`, the LD50 is given as 1300 mg/kg.
In the case of `Nc1nc2ccc(Cl)cc2o1`, the LD50 is listed as 226 mg/kg.
For `CC1=CCC(C(C)C)=CC1`, the LD50 is listed as 3650 mg/kg.
In the case of `Cc1nc2ccccc2c(=O)n1-c1ccc(Br)cc1`, the LD50 is given as 185 mg/kg.
In the case of `CC(C)COC(=O)CCCOc1ccc(Cl)cc1Cl`, the LD50 is listed as 300 mg/kg.
For `CCCCC(O)CC` (stereo not drawn), the LD50 is listed as 1870 mg/kg.
For `NC1=NC(C(F)(F)F)(C(F)(F)F)NC1(C(F)(F)F)C(F)(F)F`, the LD50 is given as 19 mg/kg.
In the case of `CP(=O)(Oc1ccc([N+](=O)[O-])cc1)c1ccccc1` (stereo not drawn), the LD50 is listed as 12.5 mg/kg.
For `O=[N+]([O-])c1ccc(O)c2ncccc12`, the LD50 is given as 510 mg/kg.
In the case of `COP(=O)(NC=O)SC` (stereo not drawn), the LD50 is given as 190 mg/kg.
For `CCN(CC)CCNC(=O)c1cc(S(C)(=O)=O)ccc1OC`, the LD50 is listed as 4840 mg/kg.
In the case of `O=[N+]([O-])c1ccc(O/N=C/c2cc(Br)c(O)c(Br)c2)c([N+](=O)[O-])c1`, the LD50 is given as 1100 mg/kg.
For `CCOc1ccc(Cl)cc1C(CN(C)C)C(C)CC` (stereo not drawn), the LD50 is listed as 632 mg/kg.
For `CCCCCOC(C[n+]1ccccc1)c1ccc(C2CCCCC2)cc1` (stereo not drawn), the LD50 is listed as 250 mg/kg.
For `CN1CC(CC#N)CC2c3cccc4[nH]c(Cl)c(c34)CC21` (stereo not drawn), the LD50 is listed as 290 mg/kg.
For `COc1ccccc1OC(=O)[C@H](C)c1ccc(CC(C)C)cc1`, the LD50 is given as 2060 mg/kg.
In the case of `CCOP(=O)(O)C(N)=O`, the LD50 is listed as 10100 mg/kg.
In the case of `Oc1cc(O)cc(Sc2cc(O)cc(O)c2)c1`, the LD50 is listed as 4290 mg/kg.
For `COc1cc(OC)nc(NC(=O)NS(=O)(=O)c2cc(NC=O)ccc2C(=O)N(C)C)n1`, the LD50 is given as 3880 mg/kg.
In the case of `CCCCC(=O)Cc1ccccc1`, the LD50 is given as 4400 mg/kg.
